Test results published in ChEMBL document CHEMBL1201862, “PubChem BioAssay data set” (2004).
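96-well plates; 48 h exposure; 5 concentrations. Endpoints by linear interpolation between flanking doses. Not reached: highest tested concentration assigned. GI50 marks 50% less growth.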 Calls of active or inactive are those of the source. Cut-off read from the data, not from the text of the source: active = GI50 up to about 1.1 µM and inactive = higher.

What was measured:
Assay in all cases: NCI anticancer screen, dose series, 48 h
MDA-MB-231 = tested on: MDA-MB-231
NCI-H522 = tested on: NCI-H522
MDA-MB-435 = tested on: MDA-MB-435
A498 = tested on: A498
COLO 205 = tested on: COLO 205
NCI-H23 = tested on: NCI-H23
HCT-15 = tested on: HCT-15
SF-539 = tested on: SF-539
HL-60 = tested on: HL-60
SW-620 = tested on: SW-620
HCT-116 = tested on: HCT-116
SN12C = tested on: SN12C
RPMI-8226 = tested on: RPMI-8226
M14 = tested on: M14
PC-3 = tested on: PC-3
SF-295 = tested on: SF-295
LOX IMVI = tested on: LOX IMVI
OVCAR-5 = tested on: OVCAR-5
ACHN = tested on: ACHN
A549 = tested on: A549
MOLT-4 = tested on: MOLT-4
SK-MEL-2 = tested on: SK-MEL-2
UACC-257 = tested on: UACC-257
T47D = tested on: T47D
NCI/ADR-RES = tested on: NCI/ADR-RES
HT-29 = tested on: HT-29
KM12 = tested on: KM12
UO-31 = tested on: UO-31
HOP-62 = tested on: HOP-62
OVCAR-4 = tested on: OVCAR-4
RXF 393 = tested on: RXF 393
786-0 = tested on: 786-0
SR = tested on: SR
U-251 = tested on: U-251
SK-OV-3 = tested on: SK-OV-3
Hs-578T = tested on: Hs-578T
SK-MEL-5 = tested on: SK-MEL-5
Malme-3M = tested on: Malme-3M
K562 = tested on: K562
CCRF-CEM = tested on: CCRF-CEM
MCF7 = tested on: MCF7
SNB-75 = tested on: SNB-75
OVCAR-8 = tested on: OVCAR-8
NCI-H460 = tested on: NCI-H460
NCI-H226 = tested on: NCI-H226
IGROV-1 = tested on: IGROV-1
TK-10 = tested on: TK-10
SK-MEL-28 = tested on: SK-MEL-28
EKVX = tested on: EKVX
OVCAR-3 = tested on: OVCAR-3
SNB-19 = tested on: SNB-19
DU-145 = tested on: DU-145
BT-549 = tested on: BT-549
CAKI-1 = tested on: CAKI-1
SF-268 = tested on: SF-268
UACC-62 = tested on: UACC-62
MDA-N = tested on: MDA-N
HCC 2998 = tested on: HCC 2998

Measured: GI50

O=C(Nc1nnc(-c2ccc(Cl)cc2)o1)C(SC(=S)N1CCOCC1)c1ccccc1 (stereo not drawn)
6.03 µM: HCT-15
inactive: MDA-MB-231 30.3 µM | NCI-H522 16.3 µM | MDA-MB-435 17.6 µM | A498 20.4 µM | COLO 205 13.7 µM | NCI-H23 20.9 µM | SF-539 16.7 µM | HL-60 5.69 µM | SW-620 26 µM | HCT-116 10.2 µM | SN12C 8.22 µM | RPMI-8226 9.48 µM | M14 16.1 µM | PC-3 13.6 µM | SF-295 13.1 µM | LOX IMVI 7.94 µM | OVCAR-5 34.8 µM | ACHN 12.4 µM | A549 13.8 µM | MOLT-4 4.38 µM | SK-MEL-2 14.7 µM | UACC-257 33 µM | T47D 21.7 µM | NCI/ADR-RES 5.58 µM | HT-29 18.8 µM | KM12 13.7 µM | UO-31 4.97 µM | HOP-62 16.6 µM | OVCAR-4 20.2 µM | RXF 393 26.9 µM | 786-0 9.35 µM | SR 8.09 µM | U-251 12.5 µM | SK-OV-3 28.1 µM | Hs-578T 46.2 µM | SK-MEL-5 12.4 µM | Malme-3M 35 µM | K562 11.6 µM | CCRF-CEM 10 µM | MCF7 22.3 µM | SNB-75 26.4 µM | OVCAR-8 19.7 µM | NCI-H460 6.44 µM | NCI-H226 21.9 µM | IGROV-1 19.6 µM | TK-10 44.3 µM | SK-MEL-28 23.2 µM | EKVX 14.6 µM | OVCAR-3 9.38 µM | SNB-19 27 µM | DU-145 23.7 µM | BT-549 16.8 µM | CAKI-1 20.3 µM

N#Cc1c(N2CCN(c3ccc([N+](=O)[O-])cc3)CC2)[n+]([O-])c2ccccc2[n+]1[O-]
active: UO-31 0.0155 µM | SF-268 0.346 µM
> 100 µM: HCT-15
inactive: MDA-MB-231 > 100 µM | NCI-H522 3.5 µM | MDA-MB-435 > 100 µM | COLO 205 > 100 µM | NCI-H23 > 100 µM | SF-539 38.3 µM | SW-620 > 100 µM | HCT-116 > 100 µM | SN12C > 100 µM | RPMI-8226 6.5 µM | M14 > 100 µM | PC-3 > 100 µM | SF-295 > 100 µM | LOX IMVI 32.4 µM | OVCAR-5 > 100 µM | ACHN > 100 µM | A549 99.5 µM | MOLT-4 1.93 µM | SK-MEL-2 > 100 µM | UACC-257 > 100 µM | T47D 55.6 µM | NCI/ADR-RES 79.4 µM | HT-29 > 100 µM | KM12 > 100 µM | HOP-62 > 100 µM | OVCAR-4 > 100 µM | RXF 393 > 100 µM | 786-0 > 100 µM | SR 1.28 µM | U-251 78.2 µM | SK-OV-3 > 100 µM | SK-MEL-5 > 100 µM | Malme-3M > 100 µM | UACC-62 > 100 µM | K562 6.78 µM | CCRF-CEM 4.94 µM | MCF7 > 100 µM | MDA-N > 100 µM | SNB-75 > 100 µM | OVCAR-8 20.5 µM | NCI-H460 > 100 µM | IGROV-1 17.4 µM | TK-10 > 100 µM | SK-MEL-28 > 100 µM | EKVX > 100 µM | OVCAR-3 > 100 µM | SNB-19 > 100 µM | DU-145 > 100 µM | BT-549 > 100 µM | CAKI-1 > 100 µM | HCC 2998 > 100 µM
